Results from ChEMBL document CHEMBL1201862, “PubChem BioAssay data set” (2004).
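1) Cells in 96-well plates. 2) Compound, 48 h, 5 concentrations. 3) Linear interpolation between surrounding doses. 4) Unreached endpoint = highest concentration. At the GI50, growth is halved.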 Activity calls are given as the source filed them. Cut-off read from the data, not from the text of the source: active = GI50 up to about 1.1 µM and inactive = higher.

Experiments:
Assay in all cases: NCI tumour cell line growth inhibition, 48 h
HCT-15 = system: HCT-15
MDA-MB-231 = system: MDA-MB-231
NCI-H522 = system: NCI-H522
OVCAR-8 = system: OVCAR-8
TK-10 = system: TK-10
Malme-3M = system: Malme-3M
UACC-257 = system: UACC-257
M14 = system: M14
HCC 2998 = system: HCC 2998
SK-MEL-5 = system: SK-MEL-5
SNB-75 = system: SNB-75
HL-60 = system: HL-60
MDA-MB-435 = system: MDA-MB-435
OVCAR-5 = system: OVCAR-5
HOP-62 = system: HOP-62
SF-539 = system: SF-539
CCRF-CEM = system: CCRF-CEM
T47D = system: T47D
HCT-116 = system: HCT-116
SF-268 = system: SF-268
LOX IMVI = system: LOX IMVI
PC-3 = system: PC-3
NCI/ADR-RES = system: NCI/ADR-RES
K562 = system: K562
SK-OV-3 = system: SK-OV-3
DU-145 = system: DU-145
MOLT-4 = system: MOLT-4
UO-31 = system: UO-31
EKVX = system: EKVX
MCF7 = system: MCF7
A549 = system: A549
NCI-H460 = system: NCI-H460
BT-549 = system: BT-549
ACHN = system: ACHN
IGROV-1 = system: IGROV-1
OVCAR-4 = system: OVCAR-4
RPMI-8226 = system: RPMI-8226
HT-29 = system: HT-29
SN12C = system: SN12C
COLO 205 = system: COLO 205
NCI-H226 = system: NCI-H226
CAKI-1 = system: CAKI-1
SF-295 = system: SF-295
SR = system: SR
KM12 = system: KM12
NCI-H23 = system: NCI-H23
UACC-62 = system: UACC-62
RXF 393 = system: RXF 393
SK-MEL-28 = system: SK-MEL-28
786-0 = system: 786-0
SNB-19 = system: SNB-19
MDA-N = system: MDA-N
Hs-578T = system: Hs-578T
SW-620 = system: SW-620
HOP-92 = system: HOP-92
SK-MEL-2 = system: SK-MEL-2
OVCAR-3 = system: OVCAR-3
U-251 = system: U-251

**Q.** How did the GI50 (HCT-15) turn out when `C=CCNC(=O)NC(=O)CSC1=NC(=O)C2(NN1)c1ccccc1-c1ccccc12` was run?
**A.** > 10 µM

**Q.** What about the GI50 (MDA-MB-231) of the same compound?
**A.** > 10 µM (inactive)

**Q.** What about the GI50 (NCI-H522) of the same compound?
**A.** > 10 µM (inactive)

**Q.** What about the GI50 (OVCAR-8) of the same compound?
**A.** > 10 µM (inactive)

**Q.** What about the GI50 (TK-10) of the same compound?
**A.** > 10 µM (inactive)

**Q.** And the GI50 (Malme-3M)?
**A.** > 10 µM (inactive)

**Q.** And the GI50 (UACC-257)?
**A.** > 10 µM (inactive)

**Q.** What about the GI50 (M14) of the same compound?
**A.** > 10 µM (inactive)

**Q.** And the GI50 (HCC 2998)?
**A.** > 10 µM (inactive)

**Q.** And the GI50 (SK-MEL-5)?
**A.** > 10 µM (inactive)

**Q.** And the GI50 (SNB-75)?
**A.** > 10 µM (inactive)

**Q.** And the GI50 (HL-60)?
**A.** > 10 µM (inactive)

**Q.** What about the GI50 (MDA-MB-435) of the same compound?
**A.** > 10 µM (inactive)

**Q.** What about the GI50 (OVCAR-5) of the same compound?
**A.** > 10 µM (inactive)

**Q.** And the GI50 (HOP-62)?
**A.** > 10 µM (inactive)

**Q.** And the GI50 (SF-539)?
**A.** > 10 µM (inactive)

**Q.** What about the GI50 (CCRF-CEM) of the same compound?
**A.** > 10 µM (inactive)

**Q.** What about the GI50 (T47D) of the same compound?
**A.** > 10 µM (inactive)

**Q.** What about the GI50 (HCT-116) of the same compound?
**A.** > 10 µM (inactive)

**Q.** And the GI50 (SF-268)?
**A.** > 10 µM (inactive)

**Q.** What about the GI50 (LOX IMVI) of the same compound?
**A.** > 10 µM (inactive)

**Q.** What about the GI50 (PC-3) of the same compound?
**A.** > 10 µM (inactive)

**Q.** What about the GI50 (NCI/ADR-RES) of the same compound?
**A.** > 10 µM (inactive)

**Q.** What about the GI50 (K562) of the same compound?
**A.** > 10 µM (inactive)

**Q.** And the GI50 (SK-OV-3)?
**A.** > 10 µM (inactive)

**Q.** What about the GI50 (DU-145) of the same compound?
**A.** > 10 µM (inactive)

**Q.** What about the GI50 (MOLT-4) of the same compound?
**A.** > 10 µM (inactive)

**Q.** What about the GI50 (UO-31) of the same compound?
**A.** 9.62 µM (inactive)

**Q.** What about the GI50 (EKVX) of the same compound?
**A.** > 10 µM (inactive)

**Q.** And the GI50 (MCF7)?
**A.** > 10 µM (inactive)

**Q.** And the GI50 (A549)?
**A.** > 10 µM (inactive)

**Q.** And the GI50 (NCI-H460)?
**A.** > 10 µM (inactive)

**Q.** And the GI50 (BT-549)?
**A.** > 10 µM (inactive)

**Q.** And the GI50 (ACHN)?
**A.** > 10 µM (inactive)

**Q.** What about the GI50 (IGROV-1) of the same compound?
**A.** > 10 µM (inactive)

**Q.** What about the GI50 (OVCAR-4) of the same compound?
**A.** > 10 µM (inactive)

**Q.** And the GI50 (RPMI-8226)?
**A.** > 10 µM (inactive)

**Q.** What about the GI50 (HT-29) of the same compound?
**A.** > 10 µM (inactive)

**Q.** And the GI50 (SN12C)?
**A.** > 10 µM (inactive)

**Q.** And the GI50 (COLO 205)?
**A.** > 10 µM (inactive)

**Q.** What about the GI50 (NCI-H226) of the same compound?
**A.** > 10 µM (inactive)

**Q.** What about the GI50 (CAKI-1) of the same compound?
**A.** > 10 µM (inactive)

**Q.** And the GI50 (SF-295)?
**A.** > 10 µM (inactive)

**Q.** What about the GI50 (SR) of the same compound?
**A.** > 10 µM (inactive)

**Q.** What about the GI50 (KM12) of the same compound?
**A.** > 10 µM (inactive)

**Q.** What about the GI50 (NCI-H23) of the same compound?
**A.** > 10 µM (inactive)

**Q.** And the GI50 (UACC-62)?
**A.** > 10 µM (inactive)

**Q.** What about the GI50 (RXF 393) of the same compound?
**A.** > 10 µM (inactive)

**Q.** And the GI50 (SK-MEL-28)?
**A.** > 10 µM (inactive)

**Q.** And the GI50 (786-0)?
**A.** > 10 µM (inactive)

**Q.** What about the GI50 (SNB-19) of the same compound?
**A.** > 10 µM (inactive)

**Q.** What about the GI50 (MDA-N) of the same compound?
**A.** > 10 µM (inactive)

**Q.** And the GI50 (Hs-578T)?
**A.** 9.51 µM (inactive)

**Q.** What about the GI50 (SW-620) of the same compound?
**A.** > 10 µM (inactive)

**Q.** And the GI50 (HOP-92)?
**A.** > 10 µM (inactive)

**Q.** Which GI50 (HCT-15) does the source give for `CCOC(=O)c1c(N)sc2c1CC(C)CC2` (stereo unspecified) here?
**A.** 41.8 µM

**Q.** And the GI50 (MDA-MB-231)?
**A.** 33.4 µM (inactive)

**Q.** And the GI50 (NCI-H522)?
**A.** 18.4 µM (inactive)

**Q.** What about the GI50 (OVCAR-8) of the same compound?
**A.** 45.3 µM (inactive)

**Q.** And the GI50 (TK-10)?
**A.** 45.6 µM (inactive)

**Q.** What about the GI50 (Malme-3M) of the same compound?
**A.** 38 µM (inactive)

**Q.** What about the GI50 (UACC-257) of the same compound?
**A.** 31.2 µM (inactive)

**Q.** What about the GI50 (M14) of the same compound?
**A.** 26.8 µM (inactive)

**Q.** And the GI50 (HCC 2998)?
**A.** 19.7 µM (inactive)

**Q.** And the GI50 (SK-MEL-2)?
**A.** 31.9 µM (inactive)

**Q.** And the GI50 (SK-MEL-5)?
**A.** 19.2 µM (inactive)

**Q.** And the GI50 (SNB-75)?
**A.** 26.5 µM (inactive)

**Q.** What about the GI50 (HL-60) of the same compound?
**A.** 0.292 µM (active)

**Q.** What about the GI50 (MDA-MB-435) of the same compound?
**A.** 41.2 µM (inactive)

**Q.** And the GI50 (OVCAR-5)?
**A.** 55.3 µM (inactive)

**Q.** What about the GI50 (HOP-62) of the same compound?
**A.** 52.5 µM (inactive)

**Q.** What about the GI50 (T47D) of the same compound?
**A.** 32.5 µM (inactive)

**Q.** What about the GI50 (HCT-116) of the same compound?
**A.** 47.6 µM (inactive)

**Q.** What about the GI50 (SF-268) of the same compound?
**A.** 45.1 µM (inactive)

**Q.** What about the GI50 (LOX IMVI) of the same compound?
**A.** 42.2 µM (inactive)

**Q.** And the GI50 (PC-3)?
**A.** 29.4 µM (inactive)

**Q.** What about the GI50 (NCI/ADR-RES) of the same compound?
**A.** 44.3 µM (inactive)

**Q.** What about the GI50 (K562) of the same compound?
**A.** 39.4 µM (inactive)

**Q.** What about the GI50 (SK-OV-3) of the same compound?
**A.** 47.6 µM (inactive)

**Q.** What about the GI50 (DU-145) of the same compound?
**A.** 67.5 µM (inactive)

**Q.** And the GI50 (MOLT-4)?
**A.** 30.9 µM (inactive)

**Q.** And the GI50 (UO-31)?
**A.** 32.3 µM (inactive)

**Q.** And the GI50 (EKVX)?
**A.** 32.6 µM (inactive)

**Q.** What about the GI50 (MCF7) of the same compound?
**A.** 32.9 µM (inactive)

**Q.** And the GI50 (A549)?
**A.** 38.5 µM (inactive)

**Q.** What about the GI50 (NCI-H460) of the same compound?
**A.** 35.6 µM (inactive)

**Q.** And the GI50 (BT-549)?
**A.** 54.2 µM (inactive)

**Q.** What about the GI50 (OVCAR-3) of the same compound?
**A.** 46.1 µM (inactive)

**Q.** And the GI50 (ACHN)?
**A.** 39.9 µM (inactive)

**Q.** And the GI50 (IGROV-1)?
**A.** 57.4 µM (inactive)

**Q.** And the GI50 (OVCAR-4)?
**A.** 34.1 µM (inactive)

**Q.** And the GI50 (RPMI-8226)?
**A.** 30 µM (inactive)

**Q.** And the GI50 (HT-29)?
**A.** 22.4 µM (inactive)

**Q.** And the GI50 (SN12C)?
**A.** 44.4 µM (inactive)

**Q.** And the GI50 (COLO 205)?
**A.** 27.9 µM (inactive)

**Q.** And the GI50 (NCI-H226)?
**A.** 23.5 µM (inactive)

**Q.** And the GI50 (CAKI-1)?
**A.** 49 µM (inactive)

**Q.** What about the GI50 (SF-295) of the same compound?
**A.** 45 µM (inactive)

**Q.** And the GI50 (SR)?
**A.** 28.6 µM (inactive)

**Q.** What about the GI50 (KM12) of the same compound?
**A.** 41.5 µM (inactive)

**Q.** And the GI50 (NCI-H23)?
**A.** 63.7 µM (inactive)

**Q.** And the GI50 (UACC-62)?
**A.** 51.2 µM (inactive)

**Q.** What about the GI50 (RXF 393) of the same compound?
**A.** 18.6 µM (inactive)

**Q.** What about the GI50 (SK-MEL-28) of the same compound?
**A.** 53.5 µM (inactive)

**Q.** What about the GI50 (786-0) of the same compound?
**A.** 23.4 µM (inactive)

**Q.** And the GI50 (SNB-19)?
**A.** 31 µM (inactive)

**Q.** And the GI50 (U-251)?
**A.** 42.4 µM (inactive)

**Q.** What about the GI50 (MDA-N) of the same compound?
**A.** 47.5 µM (inactive)

**Q.** And the GI50 (Hs-578T)?
**A.** 43.7 µM (inactive)

**Q.** And the GI50 (SW-620)?
**A.** 55.6 µM (inactive)

**Q.** And the GI50 (HOP-92)?
**A.** 27.7 µM (inactive)
